Measured values: ChEMBL document CHEMBL6153025, “Multidrug-resistant bacteria quorum-sensing inhibitors: A particular focus on Pseudomonasaeruginosa” (Eur J Med Chem, 2025)
In brackets after ≈: the same amount, converted by molar mass.

What was measured:
[1] = tested on: Pseudomonas aeruginosa; assay: Antibiofilm activity against Pseudomonas aeruginosa ATCC 15442 assessed as inhibition of biofilm formation at 16 ug/ml relative to control; format: functional; parameters: scale not given: the % may be the effect or the level left; details: dose 16 µg/ml
[2] = tested on: Pseudomonas aeruginosa; assay: Antibacterial activity against Pseudomonas aeruginosa ATCC 15442 assessed as reduction in bacterial cell growth incubated for 18 hrs by two fold serial microdilution method; format: functional
[3] = tested on: Pseudomonas aeruginosa; assay: Antibiofilm activity against Pseudomonas aeruginosa PAO1 assessed as inhibition of biofilm formation incubated for 24 hrs by crystal violet staining based assay; format: functional, organism-based; details: PAO1, 24 h
[4] = tested on: Pseudomonas aeruginosa; assay: Antivirulence activity in Pseudomonas aeruginosa PAO1 assessed as reduction in pyocyanin production at 10 uM incubated for 24 hrs by absorbance based analysis relative to control; format: functional; parameters: scale not given: the % may be the effect or the level left
[5] = tested on: Pseudomonas aeruginosa; assay: Anti-virulence activity in Pseudomonas aeruginosa PAO1 assessed as reduction in pyoverdine production at 160 ug/ml by absorbance based analysis relative to control; format: functional; parameters: scale not given: the % may be the effect or the level left; details: dose 160 µg/ml
[6] = tested on: Pseudomonas aeruginosa; assay: Downregulation of rhlA mRNA level in Pseudomonas aeruginosa PAO1 at 10 uM by RT-qPCR analysis; format: functional
[7] = Inhibition of quorum sensing system in Pseudomonas aeruginosa PAO1 expressing lasB-gfp assessed as inhibition of lasB expression at 50 ug/ml incubated for 8 hrs by microplate reader based analysis relative to control; details: dose 50.0 µg/ml
[8] = tested on: Pseudomonas aeruginosa; assay: Anti-virulence effect in Pseudomonas aeruginosa PAO1 assessed as inhibition of rhamnolipid production at 10 uM relative to control; format: functional; parameters: scale not given: the % may be the effect or the level left
[9] = tested on: Pseudomonas aeruginosa; assay: Antivirulence activity against Pseudomonas aeruginosa PAO1 assessed as inhibition of pyocyanin production at 16 ug/ml relative to control; format: functional; parameters: scale not given: the % may be the effect or the level left; details: dose 16 µg/ml
[10] = tested on: Pseudomonas aeruginosa; assay: Downregulation of lasA mRNA expression in Pseudomonas aeruginosa PAO1 at 160 ug/ml incubated for 6 hrs by RT-qPCR analysis relative to control; format: functional; details: dose 160 µg/ml
[11] = tested on: Pseudomonas aeruginosa; assay: Antibiofilm activity against Pseudomonas aeruginosa PA14 assessed as reduction in biofilm formation; format: functional
[12] = tested on: Pseudomonas aeruginosa; assay: Antibiofilm activity against Pseudomonas aeruginosa ATCC 27853 assessed as inhibition of biofilm formation at 8 microg/ml incubated for 24 hrs by crystal violet staining based analysis relative to control; format: functional; parameters: scale not given: the % may be the effect or the level left; details: dose 8 µg/ml
[13] = tested on: Pseudomonas aeruginosa; assay: Antibacterial activity against Pseudomonas aeruginosa ATCC 27853 assessed as bacterial growth inhibition by agar diffusion assay; format: functional
[14] = tested on: Pseudomonas aeruginosa; assay: Antibacterial activity against Pseudomonas aeruginosa ATCC 27853; format: functional, organism-based
[15] = Inhibition of quorum sensing system in Pseudomonas aeruginosa PAO1 expressing lasB-gfp assessed as reduction fluorescence intensity measured for 12 hrs by GFP reporter strain assay
[16] = tested on: Pseudomonas aeruginosa; assay: Antibiofilm activity against Pseudomonas aeruginosa PAO1 assessed as inhibition of biofilm formation at 32 ug/ml incubated for 8 hrs by crystal violet staining based assay relative to control; format: functional; parameters: scale not given: the % may be the effect or the level left; details: dose 32 µg/ml
[17] = tested on: Pseudomonas aeruginosa; assay: Antivirulence activity against Pseudomonas aeruginosa PAO1 assessed as inhibition of rhamnolipid production at 16 ug/ml relative to control; format: functional; parameters: scale not given: the % may be the effect or the level left; details: dose 16 µg/ml
[18] = tested on: Pseudomonas aeruginosa; assay: Antimicrobial activity against Pseudomonas aeruginosa PAO1 assessed as inhibition of bacterial growth measured for 18 hrs by CLSI-based broth microdilution method; format: functional
[19] = tested on: Pseudomonas aeruginosa; assay: Antibiofilm activity against Pseudomonas aeruginosa PAO1 assessed as inhibition of biofilm formation at 16 microg/ml incubated for 20 hrs by crystal violet staining based analysis; format: functional; parameters: scale not given: the % may be the effect or the level left; details: dose 16 µg/ml
[20] = tested on: Pseudomonas aeruginosa; assay: Antivirulence activity against Pseudomonas aeruginosa PAO1 assessed as reduction in pyocyanin production at 20 ug/ml relative to control; format: functional; parameters: scale not given: the % may be the effect or the level left; details: dose 20 µg/ml
[21] = tested on: Pseudomonas aeruginosa; assay: Antivirulence activity in Pseudomonas aeruginosa PAO1 assessed as reduction in elastase production at 10 uM incubated for 24 hrs by elastin-congo red dye based absorbance assay relative to control; format: functional; parameters: scale not given: the % may be the effect or the level left
[22] = tested on: Pseudomonas aeruginosa; assay: Antibacterial activity against Pseudomonas aeruginosa PAO1 assessed as reduction in bacterial growth; format: functional
[23] = Inhibition of quorum sensing system in Pseudomonas aeruginosa PAO1 expressing lasI-gfp assessed as inhibition of lasI expression at 50 ug/ml incubated for 8 hrs under shaking condition by microplate reader based analysis relative to control; details: dose 50.0 µg/ml
[24] = Inhibition of quorum sensing system in Pseudomonas aeruginosa PAO1-rhlA-gfp assessed as inhibition of rhlA expression at 50 ug/ml incubated for 8 hrs by microplate reader based analysis relative to control; details: dose 50.0 µg/ml
[25] = tested on: Pseudomonas aeruginosa; assay: Downregulation of lasR mRNA expression in Pseudomonas aeruginosa PAO1 at 16 ug/ml relative to control; format: functional; details: dose 16 µg/ml
[26] = tested on: Pseudomonas aeruginosa; assay: Downregulation of lasI mRNA expression in Pseudomonas aeruginosa PAO1 at 16 ug/ml relative to control; format: functional; details: dose 16 µg/ml
[27] = tested on: Pseudomonas aeruginosa; assay: Downregulation of rhlR mRNA expression in Pseudomonas aeruginosa PAO1 at 160 ug/ml incubated for 6 hrs by RT-qPCR analysis relative to control; format: functional; details: dose 160 µg/ml
[28] = tested on: Pseudomonas aeruginosa; assay: Antibiofilm activity against Pseudomonas aeruginosa PAO1 assessed as reduction in biofilm formation at 16 ug/ml incubated for 2 to 4 hrs by crystal violet staining based analysis relative to control; format: functional; parameters: scale not given: the % may be the effect or the level left; details: dose 16 µg/ml; time 2-4 hrs
[29] = tested on: Pseudomonas aeruginosa; assay: Antibiofilm activity against Pseudomonas aeruginosa PAO1 assessed as inhibition of biofilm formation at 1 to 100 uM incubated for 24 hrs by crystal violet staining based assay relative to control; format: functional; parameters: scale not given: the % may be the effect or the level left; details: dose 1-100 µM
[30] = Inhibition of quorum sensing system in Pseudomonas aeruginosa PAO1 expressing lasB-gfp
[31] = tested on: Pseudomonas aeruginosa; assay: Antibacterial activity against Pseudomonas aeruginosa PAO1-L; format: functional, organism-based
[32] = tested on: Pseudomonas aeruginosa; assay: Anti-virulence activity against Pseudomonas aeruginosa PAO1-L assessed as reduction in pyocyanin production at 10 uM incubated for 24 hrs by absorbance based analysis relative to control; format: functional; parameters: scale not given: the % may be the effect or the level left
[33] = tested on: Pseudomonas aeruginosa; assay: Antibiofilm activity against Pseudomonas aeruginosa ATCC 27853 assessed as reduction in biofilm formation at 10 uM relative to control; format: functional; parameters: scale not given: the % may be the effect or the level left

**Q.** For `O=c1c2c(Cl)cccc2ncn1Cc1ccc(NCc2ccco2)cc1`, which Activity [1] is on record?
**A.** 26.7%

**Q.** And the MIC [2]?
**A.** > 50 µM

**Q.** With `CCCCCCCCn1ccnc1` as the compound, how does the IC50 [3] read?
**A.** 740 nM

**Q.** And the Activity [4]?
**A.** 97.37%

**Q.** What about the Activity [5] of the same compound?
**A.** 88%

**Q.** For `CCCCCCn1ccnc1`, which Activity [4] is on record?
**A.** 97%

**Q.** What about the Activity [5] of the same compound?
**A.** 60%

**Q.** What does the source list for `CC1=C(/C=C/C(C)=C/C=C/C(C)=C/C=C/C=C(C)/C=C/C=C(C)/C=C/C2=C(C)C[C@@H](O)CC2(C)C)C(C)(C)C[C@H](O)C1` [ZEAXANTHIN]?
**A.** Activity [6]: 43%; inhibition [7]: 67.8%

**Q.** Which results are given for `c1cc2c(cc1O[C@H]1OC[C@H]3[C@@H]1CO[C@@H]3c1ccc3c(c1)OCO3)OCO2` [SESAMOLIN]?
**A.** Activity [8]: 42%; Activity [9]: 79%; Activity [10]: 53.95%; MIC [11]: 150 µg/mL (≈ 405 µM); Activity [12]: 97%

**Q.** With `COc1cccc(C(=O)CSc2nc3ccccc3s2)c1` as the compound, how does the MIC [13] read?
**A.** > 512 µg/mL

**Q.** What about the IC50 [14] of the same compound?
**A.** 182 µg/mL (≈ 578 µM)

**Q.** With `[O-][S+](Cc1ccc(Cl)cc1)c1nnc(-c2ccccc2)o1` (centres undefined) as the compound, how does the IC50 [15] read?
**A.** 3.53 µM

**Q.** And the Activity [16]?
**A.** 46.8%

**Q.** Which Activity [9] does the source give for `COc1ccc(-c2cc(=O)c3c(O)cc(O)cc3o2)cc1` [ACACETIN] here?
**A.** 53%

**Q.** What about the Activity [17] of the same compound?
**A.** 67%

**Q.** What about the MIC [18] of the same compound?
**A.** 0.48 µg/mL (≈ 1.69 µM)

**Q.** What does the source list for `O=C(CSc1nc2ccccc2s1)c1ccc2c(c1)OCCO2`?
**A.** MIC [13]: > 512 µg/mL; IC50 [14]: 115 µg/mL (≈ 335 µM)

**Q.** Which Activity [19] does the source give for `O=C(CCc1ccc(Br)cc1)NC1CCOC1=O` (centres undefined) here?
**A.** 48%

**Q.** What about the Activity [20] of the same compound?
**A.** 19%

**Q.** And the Activity [21]?
**A.** 44%

**Q.** And the MIC [22]?
**A.** 10 µM (≈ 3.12 µg/mL)

**Q.** And the inhibition [23]?
**A.** 87%

**Q.** And the inhibition [24]?
**A.** 80%

**Q.** Which Activity [25] does the source give for `C=CCc1ccc(O)c(OC)c1` [EUGENOL] here?
**A.** 51%

**Q.** And the Activity [26]?
**A.** 52%

**Q.** What about the Activity [27] of the same compound?
**A.** 65%

**Q.** What about the Activity [28] of the same compound?
**A.** 50%

**Q.** Which Activity [29] does the source give for `Oc1ccc2c(c1)OC[C@](O)(Cc1ccc(O)c(O)c1)[C@H]2O` [SAPPANOL] here?
**A.** 54.26%

**Q.** Which results are given for `N#CCc1ccc(OC[C@H](O)Cn2cnc3ccc(Cl)cc3c2=O)cc1`?
**A.** IC50 [30]: 1000 nM; IC50 [31]: 4.3 µM; Activity [32]: 80%; Activity [33]: 52%

**Q.** For `c1cc2c(cc1[C@H]1OC[C@H]3[C@@H]1CO[C@@H]3c1ccc3c(c1)OCO3)OCO2` [SESAMIN], which Activity [8] is on record?
**A.** 51.31%

**Q.** What about the Activity [9] of the same compound?
**A.** 87%

**Q.** And the MIC [11]?
**A.** 75 µg/mL (≈ 212 µM)

**Q.** What about the Activity [12] of the same compound?
**A.** 92%

**Q.** What does the source list for `Cc1ccc(CCC(=O)NC2CCOC2=O)cc1` (centres undefined)?
**A.** Activity [19]: 52%; Activity [20]: 66%; Activity [21]: 52%; MIC [22]: 10 µM (≈ 2.47 µg/mL); inhibition [23]: 82%; inhibition [24]: 91%

**Q.** For `Oc1ccc([C@H]2Oc3cc(O[C@H]4OC[C@@H](O)[C@@H](O)[C@@H]4O)cc(O)c3C[C@H]2O)cc1O`, which Activity [29] is on record?
**A.** 66%
